Values of other authors in patent US20100080768A1, “Compositions and Methods for the Treatment of Inflammatory Dermatosis and Other Pathological Conditions of the Skin” (priority 2008, published 2010).

Experiments:
[1] = not given; remark: listed apart in the source

For `NC(=O)c1cccnc1` [Nicotinamide, nicotinamide], the solubility in water is listed as “free soluble” and the pka value [1] is listed as 0.5.
